Organism: Rattus norvegicus
Experiment: DrugMatrix - Regimen: Daily Repeat
Assay type: toxicity, organism-based, Sprague-Dawley
Design: regimen Daily Repeat, gender Male, age 6-8 weeks
Details: in vivo, po, route oral GAVAGE, vehicle .5 % CMC; for ABSOLUTE BASOPHIL / ABSOLUTE EOSINOPHIL / ABSOLUTE LYMPHOCYTE / ABSOLUTE MONOCYTE / ABSOLUTE SEGMENTED NEUTROPHIL / BASOPHIL / EOSINOPHIL / ERYTHROCYTE COUNT / HEMATOCRIT / HEMOGLOBIN / LEUKOCYTE COUNT / LYMPHOCYTE / MEAN CORPUSCULAR HEMOGLOBIN / MEAN CORPUSCULAR HEMOGLOBIN CONCENTRATION / MEAN CORPUSCULAR VOLUME / MONOCYTE / NEUTROPHIL / NUCLEATED RED BLOOD CELLS / PLATELET COUNT: tissue Blood; for ALANINE AMINOTRANSFERASE / ALBUMIN / ALKALINE PHOSPHATASE / ASPARTATE AMINOTRANSFERASE / BLOOD UREA NITROGEN / CARBON DIOXIDE / CHLORIDE / CHOLESTEROL / CREATINE PHOSPHOKINASE / CREATININE / GLUCOSE / LACTATE DEHYDROGENASE / LIPASE / PHOSPHORUS / POTASSIUM / SODIUM / TOTAL BILIRUBIN / TOTAL PROTEIN / URIC ACID: tissue Plasma
[1] = 31 mg/kg, 72 h, dose level Low, time 3 day
[2] = 31 mg/kg, 120 h, dose level Low, time 5 day
[3] = 76 mg/kg, 72 h, dose level High, time 3 day
[4] = 76 mg/kg, 120 h, dose level High, time 5 day

O=C1CN(/N=C/c2ccc([N+](=O)[O-])o2)C(=O)N1 [NITROFURANTOIN]
ABSOLUTE BASOPHIL [1]: 0 CELLS/uL | ABSOLUTE EOSINOPHIL [1]: 106.67 CELLS/uL | ABSOLUTE LYMPHOCYTE [1]: 13250.33 CELLS/uL | ABSOLUTE MONOCYTE [1]: 160 CELLS/uL | ABSOLUTE SEGMENTED NEUTROPHIL [1]: 1583 CELLS/uL | BASOPHIL [1]: 0% | EOSINOPHIL [1]: 0.67% | ERYTHROCYTE COUNT [1]: 5.65 x10E6/uL | HEMATOCRIT [1]: 35.43% | HEMOGLOBIN [1]: 13.47 G/DL | LEUKOCYTE COUNT [1]: 15.1 x10E3/uL | LYMPHOCYTE [1]: 88% | MEAN CORPUSCULAR HEMOGLOBIN [1]: 23.9 pg | MEAN CORPUSCULAR HEMOGLOBIN CONCENTRATION [1]: 38.03 G/DL | MEAN CORPUSCULAR VOLUME [1]: 62.77 fL | MONOCYTE [1]: 1% | NEUTROPHIL [1]: 10.33% | NUCLEATED RED BLOOD CELLS [1]: 0.33 /100WBC | PLATELET COUNT [1]: 1275.33 x10E3/uL | ALANINE AMINOTRANSFERASE [1]: 49.33 u/L | ALBUMIN [1]: 4.4 G/DL | ALKALINE PHOSPHATASE [1]: 440.67 u/L | ASPARTATE AMINOTRANSFERASE [1]: 85 u/L | BLOOD UREA NITROGEN [1]: 15.33 mg/dL | CARBON DIOXIDE [1]: 22.67 mmol/L | CHLORIDE [1]: 105.67 MEQ/L | CHOLESTEROL [1]: 74.67 mg/dL | CREATINE PHOSPHOKINASE [1]: 232.33 u/L | CREATININE [1]: 0.25 mg/dL | GLUCOSE [1]: 142.33 mg/dL | LACTATE DEHYDROGENASE [1]: 280 u/L | LIPASE [1]: 9.67 u/L | PHOSPHORUS [1]: 13.57 mg/dL | POTASSIUM [1]: 6.78 MEQ/L | SODIUM [1]: 147.27 MEQ/L | TOTAL BILIRUBIN [1]: 0.27 mg/dL | TOTAL PROTEIN [1]: 6.1 G/DL | URIC ACID [1]: 2.1 mg/dL | ABSOLUTE BASOPHIL [2]: 0 CELLS/uL | ABSOLUTE EOSINOPHIL [2]: 48 CELLS/uL | ABSOLUTE LYMPHOCYTE [2]: 14184 CELLS/uL | ABSOLUTE MONOCYTE [2]: 368 CELLS/uL | ABSOLUTE SEGMENTED NEUTROPHIL [2]: 1000 CELLS/uL | BASOPHIL [2]: 0% | EOSINOPHIL [2]: 0.33% | ERYTHROCYTE COUNT [2]: 5.46 x10E6/uL | HEMATOCRIT [2]: 34.3% | HEMOGLOBIN [2]: 13.23 G/DL | LEUKOCYTE COUNT [2]: 15.6 x10E3/uL | LYMPHOCYTE [2]: 90.67% | MEAN CORPUSCULAR HEMOGLOBIN [2]: 24.3 pg | MEAN CORPUSCULAR HEMOGLOBIN CONCENTRATION [2]: 38.57 G/DL | MEAN CORPUSCULAR VOLUME [2]: 62.93 fL | MONOCYTE [2]: 2.33% | NEUTROPHIL [2]: 6.67% | NUCLEATED RED BLOOD CELLS [2]: 0.33 /100WBC | PLATELET COUNT [2]: 1440 x10E3/uL | ALANINE AMINOTRANSFERASE [2]: 44.67 u/L | ALBUMIN [2]: 4.27 G/DL | ALKALINE PHOSPHATASE [2]: 262 u/L | ASPARTATE AMINOTRANSFERASE [2]: 72.33 u/L | BLOOD UREA NITROGEN [2]: 13.67 mg/dL | CARBON DIOXIDE [2]: 25.67 mmol/L | CHLORIDE [2]: 106.33 MEQ/L | CHOLESTEROL [2]: 58.33 mg/dL | CREATINE PHOSPHOKINASE [2]: 186 u/L | CREATININE [2]: 0.19 mg/dL | GLUCOSE [2]: 159 mg/dL | LACTATE DEHYDROGENASE [2]: 76.67 u/L | LIPASE [2]: 11.67 u/L | PHOSPHORUS [2]: 12.87 mg/dL | POTASSIUM [2]: 6.41 MEQ/L | SODIUM [2]: 147.13 MEQ/L | TOTAL BILIRUBIN [2]: 0.17 mg/dL | TOTAL PROTEIN [2]: 5.97 G/DL | URIC ACID [2]: 2.1 mg/dL | ABSOLUTE BASOPHIL [3]: 0 CELLS/uL | ABSOLUTE EOSINOPHIL [3]: 0 CELLS/uL | ABSOLUTE LYMPHOCYTE [3]: 13972.67 CELLS/uL | ABSOLUTE MONOCYTE [3]: 336.33 CELLS/uL | ABSOLUTE SEGMENTED NEUTROPHIL [3]: 1224.33 CELLS/uL | BASOPHIL [3]: 0% | EOSINOPHIL [3]: 0% | ERYTHROCYTE COUNT [3]: 5.83 x10E6/uL | HEMATOCRIT [3]: 38.1% | HEMOGLOBIN [3]: 13.73 G/DL | LEUKOCYTE COUNT [3]: 15.53 x10E3/uL | LYMPHOCYTE [3]: 89.33% | MEAN CORPUSCULAR HEMOGLOBIN [3]: 23.53 pg | MEAN CORPUSCULAR HEMOGLOBIN CONCENTRATION [3]: 36 G/DL | MEAN CORPUSCULAR VOLUME [3]: 65.37 fL | MONOCYTE [3]: 2.33% | NEUTROPHIL [3]: 8.33% | NUCLEATED RED BLOOD CELLS [3]: 0 /100WBC | PLATELET COUNT [3]: 1452.67 x10E3/uL | ALANINE AMINOTRANSFERASE [3]: 48.67 u/L | ALBUMIN [3]: 4.37 G/DL | ALKALINE PHOSPHATASE [3]: 355.67 u/L | ASPARTATE AMINOTRANSFERASE [3]: 77 u/L | BLOOD UREA NITROGEN [3]: 14.33 mg/dL | CARBON DIOXIDE [3]: 25 mmol/L | CHLORIDE [3]: 103.67 MEQ/L | CHOLESTEROL [3]: 77 mg/dL | CREATINE PHOSPHOKINASE [3]: 150 u/L | CREATININE [3]: 0.21 mg/dL | GLUCOSE [3]: 208.33 mg/dL | LACTATE DEHYDROGENASE [3]: 99 u/L | LIPASE [3]: 9.67 u/L | PHOSPHORUS [3]: 13.23 mg/dL | POTASSIUM [3]: 6.13 MEQ/L | SODIUM [3]: 146.97 MEQ/L | TOTAL BILIRUBIN [3]: 0.23 mg/dL | TOTAL PROTEIN [3]: 6.1 G/DL | URIC ACID [3]: 2.37 mg/dL | ABSOLUTE BASOPHIL [4]: 0 CELLS/uL | ABSOLUTE EOSINOPHIL [4]: 34.67 CELLS/uL | ABSOLUTE LYMPHOCYTE [4]: 10550 CELLS/uL | ABSOLUTE MONOCYTE [4]: 260.33 CELLS/uL | ABSOLUTE SEGMENTED NEUTROPHIL [4]: 1188.33 CELLS/uL | BASOPHIL [4]: 0% | EOSINOPHIL [4]: 0.33% | ERYTHROCYTE COUNT [4]: 5.54 x10E6/uL | HEMATOCRIT [4]: 34.03% | HEMOGLOBIN [4]: 12.9 G/DL | LEUKOCYTE COUNT [4]: 12.03 x10E3/uL | LYMPHOCYTE [4]: 88% | MEAN CORPUSCULAR HEMOGLOBIN [4]: 23.27 pg | MEAN CORPUSCULAR HEMOGLOBIN CONCENTRATION [4]: 37.9 G/DL | MEAN CORPUSCULAR VOLUME [4]: 61.4 fL | MONOCYTE [4]: 2% | NEUTROPHIL [4]: 9.67% | NUCLEATED RED BLOOD CELLS [4]: 0 /100WBC | PLATELET COUNT [4]: 1320 x10E3/uL | ALANINE AMINOTRANSFERASE [4]: 44.67 u/L | ALBUMIN [4]: 4.2 G/DL | ALKALINE PHOSPHATASE [4]: 279.67 u/L | ASPARTATE AMINOTRANSFERASE [4]: 85.67 u/L | BLOOD UREA NITROGEN [4]: 17 mg/dL | CARBON DIOXIDE [4]: 25.67 mmol/L | CHLORIDE [4]: 105 MEQ/L | CHOLESTEROL [4]: 70 mg/dL | CREATINE PHOSPHOKINASE [4]: 220 u/L | CREATININE [4]: 0.18 mg/dL | GLUCOSE [4]: 163.33 mg/dL | LACTATE DEHYDROGENASE [4]: 160.67 u/L | LIPASE [4]: 9.33 u/L | PHOSPHORUS [4]: 12.57 mg/dL | POTASSIUM [4]: 6.4 MEQ/L | SODIUM [4]: 146.63 MEQ/L | TOTAL BILIRUBIN [4]: 0.2 mg/dL | TOTAL PROTEIN [4]: 5.87 G/DL | URIC ACID [4]: 2.37 mg/dL
